# How the values were obtained:
# [1] = molecular target: T1, Insulin-like growth factor 1 receptor (Homo sapiens, UniProt P08069); assay: Inhibition of human IGF1R expressed in Sf21 cells by time-resolved fluorescence assay
# [2] = molecular target: T1, Insulin-like growth factor 1 receptor; assay: Inhibition IGF1R phosphorylation in human MiaPaCa2 cells; assay type: cell-based
# [3] = Bioavailability in mouse; assay type: ADME, organism-based; conditions: in vivo
# Mus musculus [4] = assay: In vivo inhibition of IFG1R autophosphorylation in C57BL/6 mouse lung at 12.5 mg/kg, po after 4 hrs; assay type: organism-based; parameters: dose 12.5 mg/kg, route oral; conditions: C57BL6, po
# [5] = Drug concentration in C57BL/6 mouse plasma at 12.5 mg/kg, po after 4 hrs; assay type: ADME, organism-based, C57BL6; parameters: dose 12.5 mg/kg, route oral
# Mus musculus [6] = assay: Dose normalized AUC in po dosed mouse; assay type: ADME, organism-based; conditions: in vivo
# Mus musculus [7] = assay: Dose normalized AUC in iv dosed mouse; assay type: ADME, organism-based; conditions: in vivo
# [8] = Plasma clearance in mouse; assay type: ADME, organism-based
# [9] = Half life in mouse; assay type: ADME, organism-based; conditions: in vivo
# T1 sequence (P08069 31-736 limits assumed): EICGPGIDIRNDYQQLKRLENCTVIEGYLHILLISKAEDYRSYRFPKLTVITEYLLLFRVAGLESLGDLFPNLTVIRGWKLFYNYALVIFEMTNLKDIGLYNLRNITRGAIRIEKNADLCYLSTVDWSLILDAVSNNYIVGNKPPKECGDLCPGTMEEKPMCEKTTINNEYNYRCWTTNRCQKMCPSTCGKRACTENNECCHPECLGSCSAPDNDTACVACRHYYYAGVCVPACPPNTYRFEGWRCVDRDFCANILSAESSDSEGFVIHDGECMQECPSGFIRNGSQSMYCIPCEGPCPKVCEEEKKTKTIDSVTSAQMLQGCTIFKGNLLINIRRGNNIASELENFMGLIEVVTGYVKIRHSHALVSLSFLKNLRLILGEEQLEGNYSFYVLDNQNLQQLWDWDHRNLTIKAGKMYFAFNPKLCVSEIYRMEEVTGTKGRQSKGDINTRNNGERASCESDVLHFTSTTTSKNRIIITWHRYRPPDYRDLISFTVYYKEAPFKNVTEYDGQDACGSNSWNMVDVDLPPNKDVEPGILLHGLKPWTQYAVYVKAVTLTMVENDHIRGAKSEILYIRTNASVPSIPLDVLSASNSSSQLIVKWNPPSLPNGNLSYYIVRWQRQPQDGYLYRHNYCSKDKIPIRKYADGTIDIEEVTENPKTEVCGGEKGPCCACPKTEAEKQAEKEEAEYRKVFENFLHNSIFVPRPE
# T1 sequence (P08069 741-1367 limits assumed): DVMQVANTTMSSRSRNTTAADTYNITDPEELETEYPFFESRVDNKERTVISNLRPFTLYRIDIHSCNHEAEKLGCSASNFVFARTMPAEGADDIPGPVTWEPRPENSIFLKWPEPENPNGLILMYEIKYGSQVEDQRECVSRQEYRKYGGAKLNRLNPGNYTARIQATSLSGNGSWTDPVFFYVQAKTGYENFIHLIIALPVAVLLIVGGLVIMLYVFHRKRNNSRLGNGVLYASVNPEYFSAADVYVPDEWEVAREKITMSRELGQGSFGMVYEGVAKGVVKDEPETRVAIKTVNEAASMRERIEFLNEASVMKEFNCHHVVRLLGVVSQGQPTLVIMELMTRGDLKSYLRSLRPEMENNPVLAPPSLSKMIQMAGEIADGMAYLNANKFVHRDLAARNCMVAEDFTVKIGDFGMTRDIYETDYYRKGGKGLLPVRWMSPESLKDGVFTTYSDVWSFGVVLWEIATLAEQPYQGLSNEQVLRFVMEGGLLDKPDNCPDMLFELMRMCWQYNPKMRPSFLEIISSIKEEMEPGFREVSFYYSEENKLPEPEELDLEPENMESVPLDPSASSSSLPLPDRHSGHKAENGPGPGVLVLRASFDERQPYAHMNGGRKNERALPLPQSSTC
IC50 [1],IC50 [2],SMILES,further results
90 nM,113 nM,Nc1ncnc2c1c(-c1ccc3[nH]c(Cc4c(F)cccc4Cl)nc3c1)nn2[C@H]1CC[C@H](N2CCOCC2)CC1,–
81 nM,142 nM,COc1ccccc1Cc1nc2ccc(-c3nn([C@H]4CC[C@H](N5CCOCC5)CC4)c4ncnc(N)c34)cc2[nH]1,–
37 nM,90 nM,Nc1ncnc2c1c(-c1ccc3nc(Cc4ccccc4Cl)[nH]c3c1)nn2[C@H]1CC[C@H](N2CCOCC2)CC1,bioavailability [3]: 28%; inhibition at 12.5 mg/kg (Mus musculus [4]): 92%; concentration at 4 h [5]: 2400 nM; AUC (Mus musculus [6]): 0.43 µmol·h/L/mg/kg; AUC (Mus musculus [7]): 1.5 µmol·h/L/mg/kg; clearance [8]: 20 mL/min/kg; half-life [9]: 1.2 h
488 nM,429 nM,Nc1ncnc2c1c(-c1ccc3nc(Cc4ccc(Cl)c(Cl)c4)[nH]c3c1)nn2[C@H]1CC[C@H](N2CCOCC2)CC1,–
123 nM,372 nM,Nc1ncnc2c1c(-c1ccc3nc(Cc4cccc(Cl)c4)[nH]c3c1)nn2[C@H]1CC[C@H](N2CCOCC2)CC1,–
674 nM,819 nM,Nc1ncnc2c1c(-c1ccc3nc(Cc4ccc(F)c(F)c4)[nH]c3c1)nn2[C@H]1CC[C@H](N2CCOCC2)CC1,–
642 nM,637 nM,Nc1ncnc2c1c(-c1ccc3nc(Cc4ccc(Cl)cc4)[nH]c3c1)nn2[C@H]1CC[C@H](N2CCOCC2)CC1,–
125 nM,252 nM,Nc1ncnc2c1c(-c1ccc3[nH]c(Cc4c(Cl)cccc4Cl)nc3c1)nn2[C@H]1CC[C@H](N2CCOCC2)CC1,–
1310 nM,2340 nM,Nc1ncnc2c1c(-c1ccc3nc(Cc4ccc5ccccc5c4)[nH]c3c1)nn2[C@H]1CC[C@H](N2CCOCC2)CC1,–
51 nM,168 nM,Nc1ncnc2c1c(-c1ccc3nc(Cc4ccccc4F)[nH]c3c1)nn2[C@H]1CC[C@H](N2CCOCC2)CC1,–
64 nM,94 nM,Nc1ncnc2c1c(-c1ccc3nc(Cc4ccccc4)[nH]c3c1)nn2[C@H]1CC[C@H](N2CCOCC2)CC1,bioavailability [3]: 15%; AUC (Mus musculus [6]): 0.16 µmol·h/L/mg/kg; AUC (Mus musculus [7]): 1.1 µmol·h/L/mg/kg; clearance [8]: 38.3 mL/min/kg; half-life [9]: 1 h
32 nM,84 nM,Nc1ncnc2c1c(-c1ccc3nc(Cc4ccsc4)[nH]c3c1)nn2[C@H]1CC[C@H](N2CCOCC2)CC1,–
37 nM,58 nM,CN1CCN([C@H]2C[C@@H](c3nc(-c4ccc5ccc(-c6ccccc6)nc5c4)c4c(N)nccn43)C2)CC1,–
176 nM,787 nM,Nc1ncnc2c1c(-c1ccc3[nH]c(-c4ccccc4)nc3c1)nn2[C@H]1CC[C@H](N2CCOCC2)CC1,–
3310 nM,1540 nM,Cc1nc(Cc2nc3ccc(-c4nn([C@H]5CC[C@H](N6CCOCC6)CC5)c5ncnc(N)c45)cc3[nH]2)cs1,–
152 nM,183 nM,Nc1ncnc2c1c(-c1ccc3nc(Cc4cc(F)cc(F)c4)[nH]c3c1)nn2[C@H]1CC[C@H](N2CCOCC2)CC1,–
58 nM,140 nM,Nc1ncnc2c1c(-c1ccc3nc(Cc4cccc(F)c4)[nH]c3c1)nn2[C@H]1CC[C@H](N2CCOCC2)CC1,–
2340 nM,2650 nM,Nc1ncnc2c1c(-c1ccc3nc(Cc4ccccn4)[nH]c3c1)nn2[C@H]1CC[C@H](N2CCOCC2)CC1,–
70 nM,257 nM,Cc1ccc(Cc2nc3ccc(-c4nn([C@H]5CC[C@H](N6CCOCC6)CC5)c5ncnc(N)c45)cc3[nH]2)cc1,–
35 nM,132 nM,Cn1c(Cc2ccccc2)nc2cc(-c3nn([C@H]4CC[C@H](N5CCOCC5)CC4)c4ncnc(N)c34)ccc21,–
23 nM,56 nM,Nc1ncnc2c1c(-c1ccc3nc(Cc4cccs4)[nH]c3c1)nn2[C@H]1CC[C@H](N2CCOCC2)CC1,bioavailability [3]: 9%; AUC (Mus musculus [6]): 0.039 µmol·h/L/mg/kg; AUC (Mus musculus [7]): 0.42 µmol·h/L/mg/kg; clearance [8]: 76.7 mL/min/kg; half-life [9]: 0.6 h
38 nM,117 nM,Cc1ccccc1Cc1nc2ccc(-c3nn([C@H]4CC[C@H](N5CCOCC5)CC4)c4ncnc(N)c34)cc2[nH]1,–
924 nM,1250 nM,Nc1ncnc2c1c(-c1ccc3nc(Cc4ccc(F)cc4)[nH]c3c1)nn2[C@H]1CC[C@H](N2CCOCC2)CC1,–
4330 nM,2790 nM,Cc1cc(-c2nn([C@H]3CC[C@H](N4CCOCC4)CC3)c3ncnc(N)c23)cc2[nH]c(Cc3ccccc3)nc12,–
71 nM,65 nM,Nc1ncnc2c1c(-c1ccc3[nH]c(Cc4ccccc4Br)nc3c1)nn2[C@H]1CC[C@H](N2CCOCC2)CC1,–
186 nM,267 nM,Cc1cccc(Cc2nc3ccc(-c4nn([C@H]5CC[C@H](N6CCOCC6)CC5)c5ncnc(N)c45)cc3[nH]2)c1,–
173 nM,197 nM,Nc1ncnc2c1c(-c1ccc3nc(Cc4cccc(F)c4F)[nH]c3c1)nn2[C@H]1CC[C@H](N2CCOCC2)CC1,–
2320 nM,–,Nc1ncnc2c1c(-c1ccc3[nH]c(Cc4cccc(Cl)c4Cl)nc3c1)nn2[C@H]1CC[C@H](N2CCOCC2)CC1,–
79 nM,104 nM,Nc1ncnc2c1c(-c1ccc3nc(Cc4c(F)cccc4F)[nH]c3c1)nn2[C@H]1CC[C@H](N2CCOCC2)CC1,–

# — ChEMBL document CHEMBL1139781, “Pyrazolo[3,4-d]pyrimidines as potent inhibitors of the insulin-like growth factor receptor (IGF-IR)” (Bioorg Med Chem Lett, 2007)
